Laboratory results as given in patent publication US8455662B2, “Formulations for benzimidazolyl pyridyl ethers” (Novartis AG, priority 2006, dated 2013).

Assay: Aqueous solubility of API at various pHs
Type: physicochemical

solubility (aqueous medium, pH 7, aqueous buffer) [µg/mL] | Solubility in water (water) | SMILES
< 1 |  | Cn1c(Nc2ccc(C(F)(F)F)cc2)nc2cc(Oc3ccnc(-c4ncc(C(F)(F)F)[nH]4)c3)ccc21 [API, {1-methyl-5-[2-(5-trifluoromethyl-1H-imidazol-2-yl)-pyridin-4-yloxy]-1H-benzoimidazol-2-yl}-(4-trifluoromethyl-phenyl)amine]
 | practically insoluble | Cn1c(Nc2ccc(C(F)(F)F)cc2)nc2cc(Oc3ccnc(-c4ncc(C(F)(F)F)[nH]4)c3)ccc21 [{1-Methyl-5-[2-(5-trifluoromethyl-1H-imidazol-2-yl)-pyridin-4-yloxy]-1H-benzoimidazol-2-yl}-(4-trifluoromethyl-phenyl)amine]
